From US20250332173A1, “COMPOUNDS AND METHODS FOR MODULATING NUCLEIC ACID SPLICING” (REMIX THERAPEUTICS INC., priority 2021, published 2025) come the findings set out here.

Like-named read-outs stand apart in the source and are kept apart here.

One assay deals with MYB. Description: HiBiT protein abundance assay, MYB HiBiT K562 cell line. Conditions: HiBiT K562 cell line, 24 hours, top dose 10 μM; read-out: Effect on protein abundance, MYB (IC50 category). The assay is classed as cell-based, human. A digest of the protocol: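 K562 knock-in lines with endogenous HiBiT-tagged target, 10,000 cells/well in IMDM + FBS, treated 24 h at 37° C with 10-point 3-fold dilutions (top 10 μM final; DMSO ≤0.25%). Lytic Nano-Glo HiBiT luminescence normalized to untagged K562 baseline and DMSO controls; IC50 = concentration giving 50% abundance via four-parameter fit.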

A further assay relates to HTT mRNA. The experiment in a line: RT-qPCR splicing assay, HTT canonical junction (CJ) and alternative junction (AJ) mRNA. It counts as cell-based, human. The following applies: Homo sapiens; for AC50: increase in HTT alternative junction (AJ) mRNA, read-out: HTT AJ AC50. The gist of the method: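 24 h treatment, 37 °C/5% CO2; A673 or K562; 11-pt 3-fold series, top 10 uM final; DMSO ≤0.25%. Cell lysis with DNase I, then 1-step RT-qPCR. Housekeeping normalization: PPIA (A673), GAPDH or GUSB (K562).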

Assay [1] deals with K562 (human chronic myelogenous leukemia) cells. The experiment in a line: Cell Titer Glo 2.0 cell viability assay. The assay is classed as cell-based. The following applies: Homo sapiens, K562, 72 h, K562 cells, 72 hours, Cell Titer Glo 2.0; read-out: K562 GI50. (In general: ATP-based viability assays read luminescence as a measure of living cells.)
[2] abbreviates: decrease in HTT canonical junction (CJ) mRNA, RT-qPCR, read-out: HTT CJ IC50.
The mark [3] stands for this setting: Table 5 panel, canonical junction qPCR, compound concentration having 50% response in CJ decrease, read-out: HTT IC50 (decrease in CJ mRNA levels).

Consider `Cc1cn2nc(-c3ccc4c(=O)n(C5CCNC6(CC6)C5)ccc4c3)cc(C)c2n1` (stereo not shown) [Compound 384], for which the IC50 in the assay on MYB, with HTT mRNA (setting [2]) and with HTT mRNA (setting [3]) was < 100 nM each time. Moreover, in the assay on HTT mRNA (RT-qPCR), the AC50 (in general, the midpoint of the concentration-response curve, whichever way the signal moves) is < 100 nM. The GI50 (as a rule, the concentration giving 50% growth inhibition) in assay [1] was in the range of 100 to 1000 nM.
As to `Cc1cn2nc(-c3cc(C#N)c4c(=O)n(C5CCNC6(CC6)C5)ccc4c3)cc(C)c2n1` (stereo not shown) [Compound 387], the IC50 with MYB, in the assay on HTT mRNA (setting [2]) and with HTT mRNA (setting [3]) was < 100 nM throughout. The AC50 with HTT mRNA (RT-qPCR) is < 100 nM. In addition, in assay [1], the GI50 was < 100 nM.
Take `Cc1cn2nc(-c3cc(Cl)c4c(=O)n(C5CCNCC5)ccc4c3)cc(C)c2n1` [Compound 390, 8-chloro-6-{2,8-dimethylimidazo[1,2-b]pyridazin-6-yl}-2-(piperidin-4-yl)isoquinolin-1-one; trifluoroacetaldehyde]: the IC50 in the assay on MYB, in the assay with HTT mRNA (setting [2]) and in the assay on HTT mRNA (setting [3]) was < 100 nM each time. In addition, the AC50 with HTT mRNA (RT-qPCR) was < 100 nM. The GI50 in assay [1] was < 100 nM.
With `Cc1cn2nc(-c3cc(O)c4c(=O)n(C5CCNCC5)ccc4c3)cc(C)c2n1` [Compound 391, 6-(2,8-dimethylimidazo[1,2-b]pyridazin-6-yl)-8-hydroxy-2-(piperidin-4-yl)isoquinolin-1(2H)-one], the IC50 in the assay with MYB, with HTT mRNA (setting [2]) and with HTT mRNA (setting [3]) was < 100 nM each time. Further, the half-maximal activity concentration (AC50) in the assay on HTT mRNA (RT-qPCR) was < 100 nM. Besides, in assay [1], the GI50 was < 100 nM.
Turning to `CC(=O)c1cc(-c2cc(F)c3c(=O)n(C4CCNCC4)ccc3c2)cn2cc(C)nc12` [Compound 393, 6-{8-acetyl-2-methylimidazo[1,2-a]pyridin-6-yl}-8-fluoro-2-(piperidin-4-yl)isoquinolin-1-one 2,2,2-trifluoroacetate], the IC50 – broadly, the concentration needed to halve the response being measured – with MYB is < 100 nM; in the assay with HTT mRNA (setting [2]), 1000 to 10000 nM; in the assay with HTT mRNA (setting [3]), 100 to 1000 nM. The half-maximal activity concentration (AC50) in the assay with HTT mRNA (RT-qPCR) was in the range of 100 to 1000 nM. In addition, the 50% growth inhibitory concentration (GI50) in assay [1] is 100 to 1000 nM.
On to `Cn1cc2cc(-c3cc(F)c4c(=O)n(C5CCNCC5)ccc4c3)cc(C#N)c2n1` [Compound 394, 5-(8-fluoro-1-oxo-2-(piperidin-4-yl)-1,2-dihydroisoquinolin-6-yl)-2-methyl-2H-indazole-7-carbonitrile], for which the IC50 in the assay on MYB, in the assay with HTT mRNA (setting [2]) and with HTT mRNA (setting [3]) was < 100 nM in each case. The AC50 in the assay with HTT mRNA (RT-qPCR) was < 100 nM. For the same compound, the GI50 in assay [1] was < 100 nM.
Take `COc1cc(-c2cc(C)c3nc(C)cn3n2)cc2ccn(C3CCNCC3)c(=O)c12` [Compound 399, 6-{2,8-dimethylimidazo[1,2-b]pyridazin-6-yl}-8-methoxy-2-(piperidin-4-yl)isoquinolin-1-one]: the IC50 with MYB, in the assay with HTT mRNA (setting [2]) and in the assay with HTT mRNA (setting [3]) was 100 to 1000 nM in each case. The AC50 in the assay on HTT mRNA (RT-qPCR) was 100 to 1000 nM. Besides, the 50% growth inhibitory concentration (GI50) in assay [1] lay within 100 to 1000 nM.
With `Cc1cn2nc(-c3cc(F)c4c(=O)n(C5CCN(C)CC5)ccc4c3)cc(C)c2n1` [Compound 400, 6-(2,8-dimethylimidazo[1,2-b]pyridazin-6-yl)-8-fluoro-2-(1-methylpiperidin-4-yl)isoquinolin-1(2H)-one], the IC50 in the assay with MYB, with HTT mRNA (setting [2]) and in the assay with HTT mRNA (setting [3]) was < 100 nM in each case. The AC50 in the assay on HTT mRNA (RT-qPCR) is < 100 nM. Further, the concentration for 50% growth inhibition (GI50) in assay [1] fell in the range of 100 to 1000 nM.
Take `CCN1CCC(n2ccc3cc(-c4cc(C)c5nc(C)cn5n4)ccc3c2=O)CC1` [Compound 402, 6-{2,8-dimethylimidazo[1,2-b]pyridazin-6-yl}-2-(1-ethylpiperidin-4-yl)isoquinolin-1-one]: the results for the IC50 in the assay on MYB, in the assay on HTT mRNA (setting [2]) and with HTT mRNA (setting [3]) were < 100 nM, 100 to 1000 nM and 100 to 1000 nM, respectively. Besides, the AC50 in the assay on HTT mRNA (RT-qPCR) lay within 100 to 1000 nM. Besides, the GI50 in assay [1] was in the range of 100 to 1000 nM.
`Cc1cn2cc(-c3ccc4c(=O)n([C@H]5CCCNC5)ccc4c3)cc(F)c2n1` [Compound 404, 6-{8-fluoro-2-methylimidazo[1,2-a]pyridin-6-yl}-2-[(3S)-piperidin-3-yl]isoquinolin-1-one]: the results for the IC50 with MYB, with HTT mRNA (setting [2]) and in the assay on HTT mRNA (setting [3]) were 100 to 1000 nM, 1000 to 10000 nM and 1000 to 10000 nM, respectively. The AC50 in the assay with HTT mRNA (RT-qPCR) was in the range of 1000 to 10000 nM. Moreover, in assay [1], the GI50 lay in the range of 1000 to 10000 nM.
As for `Cc1cn2cc(-c3cc(S(C)(=O)=O)c4c(=O)n(C5CCNCC5)ccc4c3)cc(F)c2n1` [Compound 409, 6-(8-fluoro-2-methylimidazo[1,2-a]pyridin-6-yl)-8-(methylsulfonyl)-2-(piperidin-4-yl)isoquinolin-1(2H)-one], the IC50 in the assay with MYB, with HTT mRNA (setting [2]) and in the assay on HTT mRNA (setting [3]) was > 10000 nM in each case. Moreover, in the assay on HTT mRNA (RT-qPCR), the AC50 is > 10000 nM. Moreover, the GI50 in assay [1] was > 10000 nM.
For the compound `Cn1cc2cc(-c3cc(F)c4c(=O)n(C5CCNC6(CC6)C5)ccc4c3)cc(F)c2n1` (stereo not shown) [Compound 412], the IC50 in the assay with MYB, in the assay on HTT mRNA (setting [2]) and in the assay on HTT mRNA (setting [3]) was < 100 nM in each case. In addition, in the assay with HTT mRNA (RT-qPCR), the AC50 was < 100 nM. The GI50 in assay [1] is < 100 nM.
`Cc1cn2cc(-c3cc(F)c4c(=O)n(C5CCNC6(CC6)C5)ccc4c3)cc(Cl)c2n1` (stereo not shown) [Compound 413, 2-{4-azaspiro[2.5]octan-7-yl}-6-{8-chloro-2-methylimidazo[1,2-a]pyridin-6-yl}-8-fluoroisoquinolin-1-one]: the half-inhibitory concentration (IC50) with MYB, with HTT mRNA (setting [2]) and with HTT mRNA (setting [3]) was < 100 nM in each case. For the same compound, the AC50 with HTT mRNA (RT-qPCR) is < 100 nM. Moreover, the GI50 in assay [1] was < 100 nM.
In the case of `Cn1cc2cc(-c3cc(F)c4c(=O)n(C5CCNC6(CC6)C5)ccc4c3)c(O)cc2n1` (stereo not shown) [Compound 414, 2-{4-azaspiro[2.5]octan-7-yl}-8-fluoro-6-(6-hydroxy-2-methylindazol-5-yl)isoquinolin-1-one], the IC50 in the assay on MYB, in the assay with HTT mRNA (setting [2]) and in the assay with HTT mRNA (setting [3]) was 1000 to 10000 nM each time. Also, in the assay with HTT mRNA (RT-qPCR), the AC50 lay within 1000 to 10000 nM. The GI50 in assay [1] was > 10000 nM.
Turning to `Cc1cc(-c2cc(F)c3c(=O)n(C4CCNC5(CC5)C4)ccc3c2)cc2cn(C)nc12` (stereo not shown) [Compound 415, 2-{4-azaspiro[2.5]octan-7-yl}-6-(2,7-dimethylindazol-5-yl)-8-fluoroisoquinolin-1-one], the IC50 in the assay on MYB, in the assay on HTT mRNA (setting [2]) and in the assay with HTT mRNA (setting [3]) was < 100 nM each time. In addition, the AC50 in the assay on HTT mRNA (RT-qPCR) is < 100 nM. Besides, the GI50 in assay [1] lay in the range of 100 to 1000 nM.
Regarding `Cc1cn2cc(-c3cc(F)c4c(=O)n(C5CCNC6(CC6)C5)ccc4c3)cc(C)c2n1` (stereo not shown) [Compound 416, 2-{4-azaspiro[2.5]octan-7-yl}-6-{2,8-dimethylimidazo[1,2-a]pyridin-6-yl}-8-fluoroisoquinolin-1-one], the IC50 in the assay on MYB is < 100 nM; in the assay on HTT mRNA (setting [2]), 100 to 1000 nM; in the assay with HTT mRNA (setting [3]), 100 to 1000 nM. The AC50 in the assay with HTT mRNA (RT-qPCR) lay in the range of 100 to 1000 nM. Moreover, the GI50 in assay [1] is < 100 nM.
Regarding `Cc1nc2c(F)cc(-c3cc(F)c4c(=O)n(C5CCNC6(CC6)C5)ccc4c3)cc2o1` (stereo not shown) [Compound 417, 2-{4-azaspiro[2.5]octan-7-yl}-8-fluoro-6-(4-fluoro-2-methyl-1,3-benzoxazol-6-yl)isoquinolin-1-one], the IC50 with MYB, in the assay on HTT mRNA (setting [2]) and in the assay on HTT mRNA (setting [3]) was < 100 nM in each case. Further, the AC50 in the assay with HTT mRNA (RT-qPCR) was < 100 nM. The GI50 in assay [1] is < 100 nM.
